Laboratory results taken from patent US20230122967A1, “NOVEL COMPOUNDS AS INHIBITORS OF PCSK9” (SHENGKE PHARMACEUTICALS (JIANGSU) LTD., priority 2020, published 2023).

Columns and labels:
Assay type in all cases: cell-based
HepG2 cells [1] = assay: Cell viability assay (HepG2 Survival assay, CellTiter-Glo); conditions: 24 hr, cellular ATP levels
Description: (§1) HepG2 cells (ATCC, Cat.: HB-8065) were maintained in Growth medium-Eagle's Minimum Essential Medium (Corning, 10-010-CVR), 10% FBS (Gibco, 10099-141), Penicillin (100 units/mL), Streptomycin ([…]). HepG2 cells were incubated at 37° C., 5% CO2. HepG2 cells were plated in black clear bottom 96-well plates (Corning, 3063) at 40,000 cells/well in 100 μL of growth media. After an overnight incubation, the culture media were changed to serum-free OptiMEM media (Gibco, 31985-062), 90 μL/well. Vehicle, PF-06446846 hydrochloride, berberine, or test compound was added to the culture media, 10 μL/well. After 24 hr cellular ATP levels were measured using CellTiter-Glo® 2.0 Assay (Promega, G9242).

PCSK9 = PCSK9 ELISA on HepG2 culture medium; conditions: HepG2 cells, 24 hr
Description: as §1, with “flat” for “black clear”, “3599)” for “3063)”, “medium was harvested, and 10 μL of the medium” for “cellular ATP levels”, “used for the PCSK9 ELISA (R&D Systems, SPC900).” for “measured using CellTiter-Glo® 2.0 Assay (Promega, G9242).”

PCSK9 mRNA = assay: RT-Q-PCR analysis of PCSK9 mRNA in HepG2 cells; conditions: Homo sapiens, 24 h, normalized to GAPDH, read-out: HepG2 Q-PCR PCSK9 mRNA level decrease (10 μM)
Description: HepG2 cells (ATCC, Cat.: HB-8065) were maintained in Growth medium-Eagle's Minimum Essential Medium (Corning, 10-010-CVR), 10% FBS (Gibco, 10099-141), Penicillin (100 units/mL), Streptomycin ([…]). HepG2 cells were incubated at 37° C., 5% CO2.
Cells were cultured in growth medium as described above and treated with the vehicle, Berberine or test compound for 24 h. The RNA was extracted using the Total RNA mini Kit (Tiangen, Beijing, China) according to the manufacturer's instructions. Reverse transcription was carried out using the High-Capacity cDNA reverse transcription kit (Thermo Fisher Scientific). Quantitative real-time PCR was performed using a reaction mixture containing cDNA, specific primers [PCSK9, 5′-[…]-3′ (forward) and 5′-[…]-3′ (reverse); GAPDH, 5′-[…]-3′ (forward) and 5′-[…]-3′ (reverse)] and Maxima SYBR Green/ROX qPCR Master Mix (Thermo Fisher Scientific). PCR amplification was carried out in a Real-Time PCR System. The real-time PCR conditions were 37° C. 10 min; 95° C. 10 min; 95° C. 15 s, 60° C. 30 s, 72° C. 30 s, 40 cycle. The amount of % RNA was normalized to the GAPDH level in the same samples.

HepG2 cells [2] = assay: Measurement of Dil-LDL uptake in HepG2 cells; conditions: Homo sapiens, 24 h, 10 μM for 20 h, then 20 μg/mL Dil-LDL 4 h, read-out: LDL uptake 10 μM (fold of vehicle)
Description: HepG2 cells were maintained in MEM supplemented with 10% FBS. The cells were seeded in 96 well black plates at a density of 1×10^4 cells per well and grown to 70-80% confluence. Afterwards, cells were changed to serum-free Opti-MEM for 1 h and followed by incubation with 10 μM Berberine or compounds of the present disclosure for 20 h. Then, 20 μg/mL Dil-LDL was added and incubated at 37° C. in the dark for additional 4 h. Cells were extensively washed three times with PBS, and LDL uptake was determined on a fluorescence plate reader at an excitation wavelength of 520 nm and emission wavelength of 580 nm.

SMILES	HepG2 Survival assay (10 μM) (HepG2 cells [1])	HepG2 PCSK9 ELISA (10 μM) % inhibition (PCSK9)	inhibition at 10 µM (PCSK9 mRNA)	fold induction at 10 µM (HepG2 cells [2])
CN(Cc1ccccc1F)C(=O)CN(CC(=O)Nc1ccc(Oc2ccc(F)c(F)c2)cc1)C(=O)c1ccc(C(F)(F)F)o1 [Compound 201-115]	100%	90%	90%	4.07
CN(C(=O)CN(CC(=O)Nc1ccc(Oc2ccc(F)c(F)c2)cc1)C(=O)c1ccc(C(F)(F)F)o1)C1Cc2ccccc2C1 [Compound 201-116]	100%	81%	88%	3.76
CN(C(=O)CN(CC(=O)Nc1ccc(Oc2ccc(F)c(F)c2)cc1)C(=O)c1ccco1)C1Cc2ccccc2C1 [Compound 201-134]	100%	90%	92%	5.3
O=C(CN(CC(=O)Nc1ccc(Oc2ccc(C(F)(F)F)cc2)cc1)C(=O)c1cc2cccc(F)c2[nH]1)NCc1ccccc1 [Compound 201-205]	90%	85%	92%	1.1
CC(C)c1ccc(Oc2ccc(NC(=O)CN(CC(=O)NC3CCCC3)C(=O)c3cc4cccc(F)c4[nH]3)cc2)cc1 [Compound 201-227]	112%	71%	56%	1.37
CC(C)c1ccc(Oc2ccc(NC(=O)CN(CC(=O)NCc3ccccc3)C(=O)c3cc4cccc(F)c4[nH]3)cc2)cc1 [Compound 201-242]	115%	74%	77%	2.43
CC(C)c1ccc(Oc2ccc(NC(=O)CN(CC(=O)NCc3ccccc3)C(=O)c3ccc(C(F)(F)F)o3)cc2)cc1 [Compound 201-245]	101%	76%		1.11
CC(C)c1ccc(Oc2ccc(NC(=O)CN(CC(=O)NCc3ccccc3)C(=O)c3cc4cccc(C#N)c4[nH]3)cc2)cc1 [Compound 201-253]	110%	61%	59%	1.77
COc1ccc(Oc2ccc(NC(=O)CN(CC(=O)Nc3ccccc3)C(=O)c3cc4cccc(F)c4[nH]3)cc2)cc1 [Compound 201-256]	109%	78%	75%	2.43
CC(C)c1ccc(Oc2ccc(NC(=O)CN(CC(=O)Nc3ccccc3)C(=O)c3ccc(C(F)(F)F)[nH]3)cc2)cc1 [Compound 201-265]	93%	71%	76%	1.57
N#Cc1cccc2cc(C(=O)N(CC(=O)Nc3ccccc3)CC(=O)Nc3ccc(Oc4ccc(C(F)(F)F)cc4)cc3)[nH]c12 [Compound 201-267]	103%	56%	79%	1.34
CC(C)c1ccc(Oc2ccc(NC(=O)CN(CC(=O)Nc3ccccc3)C(=O)c3cc4cccc(C#N)c4[nH]3)cc2)cc1 [Compound 201-269]	106%	53%	87%	1.34
